In PubChem BioAssay (NCI):
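Briefly, cells in 96-well plates were exposed to five compound concentrations for 48 h, and endpoints were estimated by linear interpolation. Abbreviation: GI50, concentration required for 50% inhibition of growth. The concentration for full growth arrest is given as TGI.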

Experiments:
Assay in all cases: NCI anticancer screen, dose series, 48 h
HCT-15 colon = system: HCT-15 colon
SNB-75 CNS = system: SNB-75 CNS
MOLT-4 leukemia = system: MOLT-4 leukemia
786-0 renal = system: 786-0 renal
SK-MEL-5 melanoma = system: SK-MEL-5 melanoma
UO-31 renal = system: UO-31 renal
NCI/ADR-RES ovarian = system: NCI/ADR-RES ovarian
OVCAR-3 ovarian = system: OVCAR-3 ovarian
UACC-257 melanoma = system: UACC-257 melanoma
MALME-3M melanoma = system: MALME-3M melanoma
LOX IMVI melanoma = system: LOX IMVI melanoma
SK-MEL-28 melanoma = system: SK-MEL-28 melanoma
HOP-92 NSCLC = system: HOP-92 NSCLC
UACC-62 melanoma = system: UACC-62 melanoma
T-47D breast = system: T-47D breast
U251 CNS = system: U251 CNS
HCC-2998 colon = system: HCC-2998 colon
A549 NSCLC = system: A549 NSCLC
M14 melanoma = system: M14 melanoma
MDA-MB-435 = system: MDA-MB-435
RPMI-8226 leukemia = system: RPMI-8226 leukemia
A498 renal = system: A498 renal
PC-3 prostate = system: PC-3 prostate
SK-MEL-2 melanoma = system: SK-MEL-2 melanoma
CCRF-CEM leukemia = system: CCRF-CEM leukemia
TK-10 renal = system: TK-10 renal
HT29 colon = system: HT29 colon
DU-145 prostate = system: DU-145 prostate
HS 578T breast = system: HS 578T breast
BT-549 breast = system: BT-549 breast
K-562 leukemia = system: K-562 leukemia
HOP-62 NSCLC = system: HOP-62 NSCLC
SF-539 CNS = system: SF-539 CNS
OVCAR-4 ovarian = system: OVCAR-4 ovarian
CAKI-1 renal = system: CAKI-1 renal
EKVX NSCLC = system: EKVX NSCLC
MDA-MB-231 breast = system: MDA-MB-231 breast
SNB-19 CNS = system: SNB-19 CNS
MCF7 breast = system: MCF7 breast
OVCAR-8 ovarian = system: OVCAR-8 ovarian
RXF 393 renal = system: RXF 393 renal
SW-620 colon = system: SW-620 colon
COLO 205 colon = system: COLO 205 colon
NCI-H522 lung = system: NCI-H522 lung
KM12 colon = system: KM12 colon
NCI-H226 lung = system: NCI-H226 lung
NCI-H23 lung = system: NCI-H23 lung
ACHN renal = system: ACHN renal
SF-268 CNS = system: SF-268 CNS
OVCAR-5 ovarian = system: OVCAR-5 ovarian
NCI-H460 lung = system: NCI-H460 lung
SK-OV-3 ovarian = system: SK-OV-3 ovarian
SF-295 CNS = system: SF-295 CNS
SN12C renal = system: SN12C renal
HCT-116 colon = system: HCT-116 colon
IGROV1 ovarian = system: IGROV1 ovarian

**Q.** For `O=C1CC/C(=C/COc2cc(=O)oc3ccccc23)O1`, which GI50 (HCT-15 colon) is on record?
**A.** 5.28 µM

**Q.** And the TGI (HCT-15 colon)?
**A.** 18.4 µM

**Q.** What about the GI50 (SNB-75 CNS) of the same molecule?
**A.** 1.58 µM

**Q.** What about the TGI (SNB-75 CNS) of the same molecule?
**A.** 11.8 µM

**Q.** What about the GI50 (MOLT-4 leukemia) of the same molecule?
**A.** 3.78 µM

**Q.** And the TGI (MOLT-4 leukemia)?
**A.** > 100 µM

**Q.** What about the GI50 (786-0 renal) of the same molecule?
**A.** 2.54 µM

**Q.** What about the TGI (786-0 renal) of the same molecule?
**A.** 15.9 µM

**Q.** And the GI50 (SK-MEL-5 melanoma)?
**A.** 16.8 µM

**Q.** And the TGI (SK-MEL-5 melanoma)?
**A.** 33.1 µM

**Q.** And the GI50 (UO-31 renal)?
**A.** 7.65 µM

**Q.** And the TGI (UO-31 renal)?
**A.** 21.2 µM

**Q.** And the GI50 (NCI/ADR-RES ovarian)?
**A.** 11.5 µM

**Q.** And the TGI (NCI/ADR-RES ovarian)?
**A.** 27.5 µM

**Q.** And the GI50 (OVCAR-3 ovarian)?
**A.** 5.41 µM

**Q.** What about the TGI (OVCAR-3 ovarian) of the same molecule?
**A.** 21.1 µM

**Q.** And the GI50 (UACC-257 melanoma)?
**A.** 12.9 µM

**Q.** And the TGI (UACC-257 melanoma)?
**A.** 27.7 µM

**Q.** And the GI50 (MALME-3M melanoma)?
**A.** 2.87 µM

**Q.** And the TGI (MALME-3M melanoma)?
**A.** 17.9 µM

**Q.** And the GI50 (LOX IMVI melanoma)?
**A.** 6.41 µM

**Q.** What about the TGI (LOX IMVI melanoma) of the same molecule?
**A.** 19.7 µM

**Q.** And the GI50 (SK-MEL-28 melanoma)?
**A.** 14 µM

**Q.** And the TGI (SK-MEL-28 melanoma)?
**A.** 28.5 µM

**Q.** What about the GI50 (HOP-92 NSCLC) of the same molecule?
**A.** 10.5 µM

**Q.** What about the TGI (HOP-92 NSCLC) of the same molecule?
**A.** 26.9 µM

**Q.** And the GI50 (UACC-62 melanoma)?
**A.** 12.2 µM

**Q.** And the TGI (UACC-62 melanoma)?
**A.** 25.1 µM

**Q.** And the GI50 (T-47D breast)?
**A.** 2.27 µM

**Q.** And the TGI (T-47D breast)?
**A.** 19.8 µM

**Q.** And the GI50 (U251 CNS)?
**A.** 11 µM

**Q.** And the TGI (U251 CNS)?
**A.** 23.4 µM

**Q.** And the GI50 (HCC-2998 colon)?
**A.** 15.5 µM

**Q.** What about the TGI (HCC-2998 colon) of the same molecule?
**A.** 29.5 µM

**Q.** And the GI50 (A549 NSCLC)?
**A.** 16.4 µM

**Q.** What about the TGI (A549 NSCLC) of the same molecule?
**A.** 30.8 µM

**Q.** And the GI50 (M14 melanoma)?
**A.** 2.48 µM

**Q.** What about the TGI (M14 melanoma) of the same molecule?
**A.** 13 µM

**Q.** What about the GI50 (MDA-MB-435) of the same molecule?
**A.** 7.11 µM

**Q.** What about the TGI (MDA-MB-435) of the same molecule?
**A.** 22.1 µM

**Q.** What about the GI50 (RPMI-8226 leukemia) of the same molecule?
**A.** 2.02 µM

**Q.** What about the TGI (RPMI-8226 leukemia) of the same molecule?
**A.** 8.07 µM

**Q.** And the GI50 (A498 renal)?
**A.** 12.6 µM

**Q.** What about the TGI (A498 renal) of the same molecule?
**A.** 35.4 µM

**Q.** What about the GI50 (PC-3 prostate) of the same molecule?
**A.** 5.23 µM

**Q.** What about the TGI (PC-3 prostate) of the same molecule?
**A.** 23.9 µM

**Q.** What about the GI50 (SK-MEL-2 melanoma) of the same molecule?
**A.** 6.78 µM

**Q.** What about the TGI (SK-MEL-2 melanoma) of the same molecule?
**A.** 37.1 µM

**Q.** What about the GI50 (CCRF-CEM leukemia) of the same molecule?
**A.** 3.1 µM

**Q.** What about the TGI (CCRF-CEM leukemia) of the same molecule?
**A.** 21.5 µM

**Q.** What about the GI50 (TK-10 renal) of the same molecule?
**A.** 2.73 µM

**Q.** What about the TGI (TK-10 renal) of the same molecule?
**A.** 10.5 µM

**Q.** What about the GI50 (HT29 colon) of the same molecule?
**A.** 4.38 µM

**Q.** And the TGI (HT29 colon)?
**A.** 19.6 µM

**Q.** What about the GI50 (DU-145 prostate) of the same molecule?
**A.** 4.32 µM

**Q.** And the TGI (DU-145 prostate)?
**A.** 17.6 µM

**Q.** And the GI50 (HS 578T breast)?
**A.** 10.5 µM

**Q.** And the TGI (HS 578T breast)?
**A.** 57.4 µM

**Q.** And the GI50 (BT-549 breast)?
**A.** 11.5 µM

**Q.** And the TGI (BT-549 breast)?
**A.** 24.7 µM

**Q.** What about the GI50 (K-562 leukemia) of the same molecule?
**A.** 19.3 µM

**Q.** What about the TGI (K-562 leukemia) of the same molecule?
**A.** 95.2 µM

**Q.** And the GI50 (HOP-62 NSCLC)?
**A.** 14.3 µM

**Q.** What about the TGI (HOP-62 NSCLC) of the same molecule?
**A.** 31.1 µM

**Q.** What about the GI50 (SF-539 CNS) of the same molecule?
**A.** 6.01 µM

**Q.** What about the TGI (SF-539 CNS) of the same molecule?
**A.** 21.1 µM

**Q.** And the GI50 (OVCAR-4 ovarian)?
**A.** 1.62 µM

**Q.** And the TGI (OVCAR-4 ovarian)?
**A.** 14.4 µM

**Q.** And the GI50 (CAKI-1 renal)?
**A.** 11.9 µM

**Q.** And the TGI (CAKI-1 renal)?
**A.** 28.3 µM

**Q.** And the GI50 (EKVX NSCLC)?
**A.** 17.9 µM

**Q.** And the TGI (EKVX NSCLC)?
**A.** 40.1 µM

**Q.** What about the GI50 (MDA-MB-231 breast) of the same molecule?
**A.** 11.5 µM

**Q.** And the TGI (MDA-MB-231 breast)?
**A.** 24.4 µM

**Q.** And the GI50 (SNB-19 CNS)?
**A.** 10.9 µM

**Q.** And the TGI (SNB-19 CNS)?
**A.** 26.7 µM

**Q.** And the GI50 (MCF7 breast)?
**A.** 3.74 µM

**Q.** And the TGI (MCF7 breast)?
**A.** 20.2 µM

**Q.** And the GI50 (OVCAR-8 ovarian)?
**A.** 11.7 µM

**Q.** What about the TGI (OVCAR-8 ovarian) of the same molecule?
**A.** 27.7 µM

**Q.** And the GI50 (RXF 393 renal)?
**A.** 6.9 µM

**Q.** And the TGI (RXF 393 renal)?
**A.** 21 µM

**Q.** And the GI50 (SW-620 colon)?
**A.** 4.37 µM

**Q.** What about the TGI (SW-620 colon) of the same molecule?
**A.** 18.2 µM

**Q.** And the GI50 (COLO 205 colon)?
**A.** 3.61 µM

**Q.** What about the TGI (COLO 205 colon) of the same molecule?
**A.** 17.5 µM

**Q.** And the GI50 (NCI-H522 lung)?
**A.** 1.73 µM

**Q.** And the TGI (NCI-H522 lung)?
**A.** 4.36 µM

**Q.** And the GI50 (KM12 colon)?
**A.** 7.14 µM

**Q.** And the TGI (KM12 colon)?
**A.** 25.1 µM

**Q.** What about the GI50 (NCI-H226 lung) of the same molecule?
**A.** 17.9 µM

**Q.** What about the TGI (NCI-H226 lung) of the same molecule?
**A.** 73.5 µM

**Q.** And the GI50 (NCI-H23 lung)?
**A.** 12.8 µM

**Q.** What about the TGI (NCI-H23 lung) of the same molecule?
**A.** 26.8 µM

**Q.** What about the GI50 (ACHN renal) of the same molecule?
**A.** 1.29 µM

**Q.** And the TGI (ACHN renal)?
**A.** 2.55 µM

**Q.** What about the GI50 (SF-268 CNS) of the same molecule?
**A.** 16.2 µM

**Q.** And the TGI (SF-268 CNS)?
**A.** 51.7 µM

**Q.** And the GI50 (OVCAR-5 ovarian)?
**A.** 3.68 µM

**Q.** And the TGI (OVCAR-5 ovarian)?
**A.** 22.2 µM

**Q.** What about the GI50 (NCI-H460 lung) of the same molecule?
**A.** 17.5 µM

**Q.** And the TGI (NCI-H460 lung)?
**A.** 47.2 µM

**Q.** And the GI50 (SK-OV-3 ovarian)?
**A.** 22.9 µM

**Q.** What about the TGI (SK-OV-3 ovarian) of the same molecule?
**A.** > 100 µM

**Q.** What about the GI50 (SF-295 CNS) of the same molecule?
**A.** 14.8 µM

**Q.** And the TGI (SF-295 CNS)?
**A.** 40.6 µM

**Q.** What about the GI50 (SN12C renal) of the same molecule?
**A.** 14.7 µM

**Q.** What about the TGI (SN12C renal) of the same molecule?
**A.** 36 µM

**Q.** What about the GI50 (HCT-116 colon) of the same molecule?
**A.** 6.95 µM

**Q.** What about the TGI (HCT-116 colon) of the same molecule?
**A.** 19.7 µM

**Q.** What about the GI50 (IGROV1 ovarian) of the same molecule?
**A.** 5.05 µM

**Q.** What about the TGI (IGROV1 ovarian) of the same molecule?
**A.** 19.5 µM
